Data taken from patent publication US20090241221A1, “TANDEM REAPEAT DNA CONSTRUCTS PRODUCING PROTEINS THAT ATTACK PLANT PATHOGENIC VIRUSES, FUNGI, AND BACTERIA BY DISRUPTING TRANSCRIPTION FACTORS ESSENTIAL FOR REPLICATION THEREOF IN PLANTS” (priority 2008, published 2009).
“Also recorded” adds a separate entry of the source.

Legend:
[1] = tested on: Arabidopsis thaliana ars27A mutant; conditions: in comparison with the wild type; cited from earlier work
mammalian retroviruses = conditions: millimolar concentrations; measured by release of reverse transcriptase; cited from earlier work
Mammalian rotaviruses = conditions: millimolar concentrations; cited from earlier work
[2] = tested on: SV40-transformed Balb 3T3 cells; conditions: cited from earlier work
recombinant MPS-1 = target: T1, recombinant MPS-1 (Homo sapiens, UniProt P42677); test: Gel shift assay and Zn65 removal with recombinant MPS-1; format: biochemical; conditions: for zinc dependent binding of recombinant MPS-1 to DNA: gel shift assays
T1 construct: made in house
From the text: MPS-1 is a ubiquitous tumor marker and cell growth stimulator and is described in detail in the inventors' U.S. Pat. No. 5,243,041. MPS-1 has one zinc finger domain of the type CCCC. […] This is detected by a change in the electrophoretic mobility of MPS-1 under non-denaturing conditions. These experiments indicate that picolinic acid and derivatives should remove zinc and denature various types of zinc finger, zinc ring proteins, or other types of ZF motifs whether known or heretofore undiscovered, including animal or plant viral proteins such as nucleocapsid proteins of retrovirus or the nucleocapsid proteins of Geminivirus. Furthermore, the inventors have determined that any chemical compound, whether known or heretofore undiscovered, that will remove the zinc (or other metal) and denature the proteins or that will form a ternary complex (protein-zinc-chelator) can be effective as an antiviral agent, with nontoxic effects, provided that the agent conforms with certain specific structural requirements.

[3] = tested on: iron incorporation into the cells; test: Kinetic and radioisotopic studies of iron in cells; format: cell-based
virally infected cells = test: Apoptosis of virally infected cells; format: cell-based; conditions: for fate of viruses and host cells: HIV-1, Hepatitis C and numerous other viruses as well as the host cells
From the text: APOPTOSIS. Apoptosis is a morphological pattern of cell injury and an important mode of cell death (Robbins, Pathological Basis of Disease, 1999, 6th Ed). Apoptosis shares and overlaps common mechanisms with necrosis. […] This form of cell death is designed to eliminate defective, unwanted and damaged cells. For example, the inventors have shown that cells infected by Herpes Simplex Virus 1 (HSV; labialis) and HSV-2 genitalis are destroyed together with the host cells that they infected by apoptosis when exposed to pyridine carboxylates (Fernandez-Pol, Anticancer Res. 2002). […] Thus, the inventors believes that when host cells of animals or plants are infected by pathogenic viruses, unless the treatment is extremely quickly, the host cells and the virus will be destroyed. In fact, host cells defective, mutated, and reservoirs for the novo synthesis of viruses are unwanted host cells and must be eliminated in many instances to allow the survival of the organism.

transformed cells = conditions: Kirsten sarcoma virus transformed cells; Flow Microfluorometric Analysis of DNA; cited from earlier work
NRK cells = NRK cells treated with picolinic acid; cited from earlier work
[4] = tested on: SV40 transformed BALB-3T3 cells; conditions: 3 mM picolinic acid; cited from earlier work
[5] = tested on: Rice suspension cells and leaves; conditions: cited from earlier work
Arabidopsis thaliana [6] = conditions: cited from earlier work
[7] = tested on: normal cells (BALB 3T3, NRK, WI-348); test: Growth control and cell cycle arrest in normal cells
[8] = tested on: tomato spotted wilt virus; conditions: tomato and tobacco plants; cited from earlier work
Arabidopsis thaliana [9] = conditions: cited from earlier work; remark: listed apart in the source
Orobache ramosa = conditions: Arabidopsis thaliana pre-treated with FU; cited from earlier work
HSV-1 = conditions: tissue culture and animals; cited from earlier work
HSV-2 = conditions: tissue culture and animals; cited from earlier work

In the case of `COS(C)(=O)=O` [MMS, Methyl Methane Sulphonate], the “growth of ars27A seedlings” value [1] is given as “strongly inhibited”.
In the case of `O=C(O)CN(CCN(CC(=O)O)CC(=O)O)CC(=O)O` [EDTA], the “disintegration of viral membranes” value (mammalian retroviruses) is listed as “partial disintegration of viral membranes” and the “disintegration of viral membranes” value (Mammalian rotaviruses) is listed as “partial disintegration of the viral membranes”.
For `NC(=O)c1cccnc1` [Nicotinamide, reference compound], the “effect on cell growth or apoptosis” value ([2]; 48 h) is listed as “no effect on cell growth or apoptosis”.
For `O=C(O)CN(CCOCCOCCN(CC(=O)O)CC(=O)O)CC(=O)O` [EGTA], the “disintegration of viral membranes” value (mammalian retroviruses) is listed as “partial disintegration of viral membranes” and the “disintegration of viral membranes” value (Mammalian rotaviruses) is listed as “partial disintegration of the viral membranes”.
In the case of `O=C(O)c1ccccn1` [picolinic acid, 2-pyridine carboxylic acid], the “removal of zinc (Zn65) from the CCCC zinc finger of MPS-1” value (recombinant MPS-1) is reported as “remove radioactive Zn65 from MPS-1; also recorded: remove zinc”, the “zinc dependent binding of recombinant MPS-1 to DNA” value (recombinant MPS-1) is reported as “inhibit” and the “incorporation of iron into the cells” value [3] is reported as “inhibits incorporation of iron into the cells”. For the same compound, the “removal of radioiron from the cells” value [3] was “effectively removes radioiron from the cells”, the “fate of viruses and host cells” value (virally infected cells) was “Death by apoptosis” and the “fate of virally infected cells” value (virally infected cells; by apoptosis) was “killed”. For the same compound, the “phase of cell cycle arrest” value (transformed cells) was “G1 phase”, the “potency of prostaglandin E1 in elevating cyclic AMP” value (NRK cells) was “two to five times more potent” and the “mitochondrial cytochrome c release” value [4] was “released cytochrome c”. For the same compound, the “sensitivity of transformed cells to apoptosis” value [2] was “extremely sensitive to apoptosis”, the apoptosis ([5]; Rice suspension cells and leaves) was “showed apoptosis” and the reactive oxygen species ([5]; rice suspension cells, Ca^2+-dependent) was “induced reactive oxygen species (ROS)”. For the same compound, the “hypersensitive response (HR)” value ([5]; rice) was “can elicit the hypersensitive response (HR)”, the “marker defense genes PR-1, PR-2 and PDF1.2” value (Arabidopsis thaliana [6]; dose-dependent and time dependent) was “all induced” and the “salicylic acid-dependent and jasmonic acid/ethylene-dependent pathways” value (Arabidopsis thaliana [6]; in vivo) was “strongly activated”. For the same compound, the “hypersensitive response (HR)” value (Arabidopsis thaliana [6]; including the oxidative burst and cell death) was “induced HR”, the “toxic effects in normal cells” value ([7]; longer exposure (one week)) was “most normal cells showed no toxic effects; also recorded: no toxic effects” and the “cell cycle arrest of normal cells” value ([7]; short-term treatment) was “arrests normal cells in G1 (Go)”.
For `NC(=O)c1ncn([C@@H]2O[C@H](CO)[C@@H](O)[C@H]2O)n1` [Ribavirin], the “efficacy against tomato spotted wilt virus” value [8] is listed as “successfully used; also recorded: most efficient in tomato plants”.
With `CCCCc1ccc(C(=O)O)nc1` [fusaric acid, 5-butyl picolinic acid] the “removal of zinc (Zn65) from the CCCC zinc finger of MPS-1” value (recombinant MPS-1) was “remove radioactive Zn65 from MPS-1; also recorded: remove zinc”, the “zinc dependent binding of recombinant MPS-1 to DNA” value (recombinant MPS-1) was “inhibit” and the “fate of viruses and host cells” value (virally infected cells) was “Death by apoptosis”. For the same compound, the “concentrations that reduced root growth” value (Arabidopsis thaliana [9]; also rapid transient membrane hyperpolarization, then large depolarization) was greater than 500 µM, the “concentration eliciting plant defense responses without toxic effects” value (Arabidopsis thaliana [9]; in vivo) was 100 nM and the “germination of the angiosperm parasite” value (Orobache ramosa) was “inhibited”. The “efficacy against viral infection” value (HSV-1) was “effective” and the “efficacy against viral infection” value (HSV-2) was “effective”.
